Among the data in patent publication US20100068197A1, “PHARMACEUTICAL COMPOUNDS AS INHIBITORS OF CELL PROLIFERATION AND THE USE THEREOF” (Myriad Pharmaceuticals, Inc., priority 2008, published 2010) are IC50 values, retold here.

Assay [1] deals with P388 murine leukemia cell line. The assay is described as follows: P388 cytotoxicity, cellular viability by ATP-Lite. The format is cell-based. The following applies: Mus musculus, P388, 72 h, compound concentration required to inhibit growth by 50%, intracellular ATP. As for the experimental part:
A P388 murine leukemia cell line was obtained from NCI, Frederick, Md. P388 cells were cultured in RPMI-1640 supplemented with 10% fetal bovine serum, 2 mM Glutamax, 1 mM sodium pyruvate, 0.1 mM non-essential amino acids and 10 mM HEPES. Cells were grown at 37° C. in a humidified 5% CO2 atmosphere. Exponentially growing P388 cells were plated at 5,000 cells/well in a 96-well flat-bottomed microtiter plate (Corning, Costar #3595). […] Cellular viability was determined 72 hours later by measuring intracellular ATP with ATP-Lite assay system. The effect of compounds on cell viability was calculated by comparing the ATP levels of cells exposed to test compound with those of cells exposed to DMSO. A semi-log plot of relative ATP levels versus compound concentration was used to calculate the compound concentration required to inhibit growth by 50% (IC50). Data was analyzed by Prism software (GraphPad; San Diego, Calif.) by fitting it to a sigmoidal dose response curve.

The subject of assay [2] is P388/ADR cell lines (overexpress the multidrug resistance pump MDR-1). The assay is described as follows: Multidrug resistant cell assay, cell viability by ATP-lite. The note with it: Mus musculus, 72 h, multidrug resistant cells overexpressing MDR-1. The format is cell-based, murine. From the text: Cytotoxicity of compounds in multidrug resistant cells can be determined by administering compounds to cell lines that overexpress the multidrug resistance pump MDR-1 and determining the viability of the cell lines. P388/ADR cell lines are known to overexpress the multidrug resistance pump MDR-1 (also known as P-glycoprotein-1; Pgp-1).
P388/ADR cell lines are obtained from American Type Culture Collection (Manassas, Va.) and maintained in RPMI-1640 media supplemented with 10% FCS, 10 units/mL penicillin and streptomycin, 2 mM Glutamax and 1 mM sodium pyruvate (Invitrogen Corporation, Carlsbad, Calif.). For compound testing, cells are plated in 96 well dishes at a concentration of 1.5×10^4 cells/well. Cells are allowed to adhere to the plate overnight and then incubated with compounds at final concentrations ranging from 0.13 nM to 10 μM for 72 hours. Cell viability is then assessed using the ATP-lite reagent (Perkin Elmer, Foster City, Calif.). Plates are read on a Wallac Topcount luminescence reader (Perkin Elmer, Foster City, Calif.) and the results graphed in Prism software (Graphpad Software, Inc., San Diego, Calif.). Non-linear regression with variable slope analysis is performed to obtain IC50 concentration values.

As a reminder, the IC50 is the concentration needed to halve the response being measured. Low values mean greater potency in that assay, high ones weaker potency in that assay. Take `COc1ccc(N(C)c2nc(N[C@@H](C)C(=O)OC(C)(C)C)nc3ccccc23)cc1` [Example 28, (S)-2-{4-[(4-Methoxy-phenyl)-methyl-amino]-quinazolin-2-ylamino}-propionic acid tert-butyl ester]: the values for the IC50 in assay [1] and in assay [2] were 150 nM and 170 nM, respectively.

On to `COc1ccc(N(C)c2nc(NCCOC(=O)[C@H](Cc3c[nH]c4ccccc34)NC(=O)OCc3ccccc3)nc3ccccc23)cc1` [Example 29, (S)-2-Benzyloxycarbonylamino-3-(1H-indol-3-yl)-propionic acid 2-{4-[(4-methoxy-phenyl)-methyl-amino]-quinazolin-2-ylamino}-ethyl ester], for which the IC50 in assay [1] is 32 nM; in assay [2], 40 nM.

Turning to `COC(=O)NCCNc1nc(N(C)c2ccc(OC)cc2)c2cc(C)ccc2n1` [Example 30, (2-{4-[(4-Methoxy-phenyl)-methyl-amino]-6-methyl-quinazolin-2-ylamino}-ethyl)-carbamic acid methyl ester], the IC50 amounted to 85 nM in assay [1] and 160 nM in assay [2].

For the molecule `COc1ccc(N(C)c2nc(NCCNC(=O)CNC(=O)OC(C)(C)C)nc3ccccc23)cc1` [Example 31, [(2-{4-[(4-Methoxy-phenyl)-methyl-amino]-quinazolin-2-ylamino}-ethylcarbamoyl)-methyl]-carbamic acid tert-butyl ester], the IC50 in assay [1] stood at 1300 nM; in assay [2] it was 1100 nM.

Consider `CCOC(=O)C(Nc1nc(N(C)c2ccc(OC)cc2)c2ccccc2n1)C(C)C` (centres unmarked) [Example 32, 2-{4-[(4-Methoxy-phenyl)-methyl-amino]-quinazolin-2-ylamino}-3-methyl-butyric acid ethyl ester], for which the IC50 in assay [1] is 240 nM; in assay [2], 300 nM.

Consider `COc1ccc(N(C)c2nc(NCCOC(=O)[C@@H](N)CC(N)=O)nc3ccccc23)cc1` [Example 33, (S)-2-Amino-succinamic acid 2-{4-[(4-methoxy-phenyl)-methyl-amino]-quinazolin-2-ylamino}-ethyl ester], for which the IC50 stood at 17 nM in assay [1] and 18 nM in assay [2].

As to `COC(=O)[C@H](Cc1ccc(O)cc1)Nc1nc(N(C)c2ccc(OC)cc2)c2ccccc2n1` [Example 34, (S)-3-(4-Hydroxy-phenyl)-2-{4-[(4-methoxy-phenyl)-methyl-amino]-quinazolin-2-ylamino}-propionic acid methyl ester], the IC50 in assay [1] was determined as 36 nM; in assay [2], 43 nM.

On to `COc1ccc(N(C)c2nc(NCCOC(=O)[C@H](N)Cc3c[nH]c4ccccc34)nc3ccccc23)cc1` [Example 35, (R)-2-Amino-3-(1H-indol-3-yl)-propionic acid 2-{4-[(4-methoxy-phenyl)-methyl-amino]-quinazolin-2-ylamino}-ethyl ester], for which the IC50 in assay [1] is 220 nM; in assay [2], 240 nM.

On to `COc1ccc(N(C)c2nc(N[C@@H](C)C(=O)O)nc3ccccc23)cc1` [Example 36, (S)-2-{4-[(4-Methoxy-phenyl)-methyl-amino]-quinazolin-2-ylamino}-propionic acid], for which the results for the IC50 in assay [1] and in assay [2] were 780 nM and 700 nM, respectively.

Take `CNC(=O)NCCNc1nc(N(C)c2ccc(OC)cc2)c2cc(OC)ccc2n1` [Example 37, 1-(2-{6-Methoxy-4-[(4-methoxy-phenyl)-methyl-amino]-quinazolin-2-ylamino}-ethyl)-3-methyl-urea]: the values for the half-inhibitory concentration (IC50) in assay [1] and in assay [2] were 4700 nM and 6600 nM, respectively.

With `COC(=O)NCCNc1nc(N(C)c2ccc(OC)cc2)c2ccccc2n1` [Example 38, (2-{4-[(4-Methoxy-phenyl)-methyl-amino]-quinazolin-2-ylamino}-ethyl)-carbamic acid methyl ester], the IC50 in assay [1] is 19 nM; in assay [2], 53 nM.

As to `COc1ccc(N(C)c2nc(NCCNC(N)=O)nc3ccccc23)cc1` [Example 40, (2-{4-[(4-Methoxy-phenyl)-methyl-amino]-quinazolin-2-ylamino}-ethyl)-urea], the IC50 in assay [1] is 500 nM; in assay [2], 600 nM.

For the molecule `COc1ccc(N(C)c2nc(NCCNC(=O)CN)nc3ccccc23)cc1` [Example 41, 2-Amino-N-(2-{4-[(4-methoxy-phenyl)-methyl-amino]-quinazolin-2-ylamino}-ethyl)-acetamide], the IC50 in assay [1] amounted to 1700 nM; in assay [2], 5300 nM.

Consider `COc1ccc(N(C)c2nc(NCC(O)CNc3nc(N(C)c4ccc(OC)cc4)c4ccccc4n3)nc3ccccc23)cc1` [Example 42, 1,3-Bis-{4-[(4-methoxy-phenyl)-methyl-amino]-quinazolin-2-ylamino}-propan-2-ol], for which the IC50 in assay [1] came out at 680 nM; in assay [2] it was 880 nM.

As for `COc1ccc(N(C)c2nc(CNC(=O)Oc3ccccc3)nc3ccc(F)cc23)cc1` [Example 43, {6-Fluoro-4-[(4-methoxy-phenyl)-methyl-amino]-quinazolin-2-ylmethyl}-carbamic acid phenyl ester], the IC50 in assay [1] turned out to be 7.2 nM; in assay [2], 5.7 nM.

For `COc1ccc(N(C)c2nc(NCC(O)CN)nc3ccccc23)cc1` (centres unmarked) [Example 44, 1-Amino-3-{4-[(4-methoxy-phenyl)-methyl-amino]-quinazolin-2-ylamino}-propan-2-ol], the IC50 came to 37 nM in assay [1] and 57 nM in assay [2].

With `COc1ccc(N(C)c2nc(CNS(=O)(=O)c3ccc(OC)cc3)nc3ccccc23)cc1` [Example 45, 4-Methoxy-N-{4-[(4-methoxy-phenyl)-methyl-amino]-quinazolin-2-ylmethyl}-benzenesulfonamide], the figures for the concentration for half-maximal inhibition (IC50) in assay [1] and in assay [2] were 1700 nM and 1800 nM, respectively.

For `COc1ccc(N(C)c2nc(CNC(=O)OCc3ccccc3)nc3ccccc23)cc1` [Example 47, {4-[(4-Methoxy-phenyl)-methyl-amino]-quinazolin-2-ylmethyl}-carbamic acid benzyl ester], the results for the 50% inhibitory concentration (IC50) in assay [1] and in assay [2] were 23 nM and 27 nM, respectively.

Turning to `COc1ccc(N(C)c2nc(NCCCN(C)c3nc(N(C)c4ccc(OC)cc4)c4ccccc4n3)nc3ccccc23)cc1` [Example 48, 3-{4-[(4-Methoxy-phenyl)-methyl-amino]-quinazolin-2-ylamino}-1-({4-[(4-methoxy-phenyl)-methyl-amino]-quinazolin-2-yl}-methyl-amino)-propane], the IC50 in assay [1] is 70 nM; in assay [2] it was 83 nM.

On to `COc1ccc(N(C)c2nc(CNC(=O)OC(C)OC(=O)C(C)C)nc3ccccc23)cc1` (centres unmarked) [Example 49, Isobutyric acid 1-{4-[(4-methoxy-phenyl)-methyl-amino]-quinazolin-2-ylmethylcarbamoyloxy}-ethyl ester], for which the half-maximal inhibitory concentration (IC50) in assay [1] turned out to be 5.5 nM; in assay [2], 13 nM.

Regarding `COc1ccc(N(C)c2nc(CNC(=O)[C@H](C)NC(=O)OC(C)(C)C)nc3ccccc23)cc1` [Example 50, [(S)-1-({4-[(4-Methoxy-phenyl)-methyl-amino]-quinazolin-2-ylmethyl}-carbamoyl)-ethyl]-carbamic acid tent-butyl ester], the IC50 in assay [1] came out at 180 nM; in assay [2], 190 nM.

For the molecule `COc1ccc(N(C)c2nc(CNC(=O)[C@H](CC(N)=O)NC(=O)OC(C)(C)C)nc3ccccc23)cc1` [Example 51, [(S)-2-Carbamoyl-1-({4-[(4-methoxy-phenyl)-methyl-amino]-quinazolin-2-ylmethyl}-carbamoyl)-ethyl]-carbamic acid tent-butyl ester], the IC50 in assay [1] is 620 nM; in assay [2], 970 nM.

As to `COc1ccc(N(C)c2nc(CNC(=O)[C@@H](C)NC(=O)OC(C)(C)C)nc3ccccc23)cc1` [Example 53, [(R)-1-({4-[(4-Methoxy-phenyl)-methyl-amino]-quinazolin-2-ylmethyl}-carbamoyl)-ethyl]-carbamic acid tert-butyl ester], the 50% inhibitory concentration (IC50) in assay [1] is 457 nM; in assay [2], 680 nM.

As to `COc1ccc(N(C)c2nc(CN(CCCO)Cc3nc(N(C)c4ccc(OC)cc4)c4ccccc4n3)nc3ccccc23)cc1` [Example 54, 3-(Bis-{4-[(4-methoxy-phenyl)-methyl-amino]-quinazolin-2-ylmethyl}-amino)-propan-1-ol], the results for the IC50 in assay [1] and in assay [2] were 64 nM and 76 nM, respectively.

Turning to `COc1ccc(N(C)c2nc(CNC(=O)OC(COC(C)=O)COC(C)=O)nc3ccccc23)cc1` [Example 55, Acetic acid 3-acetoxy-2-{4-[(4-methoxy-phenyl)-methyl-amino]-quinazolin-2-ylmethylcarbamoyloxy}-propyl ester], the values for the half-maximal inhibitory concentration (IC50) in assay [1] and in assay [2] were 330 nM and 450 nM, respectively.
